Results as given in ChEMBL document CHEMBL3132854, “Synthesis and anticancer activity evaluation of resveratrolchalcone conjugates” (2014).

Columns and labels:
Type in all cases: functional
HOP-62 = experiment: Cytotoxicity against human HOP62 cells by sulforhodamine B assay
A549 = experiment: Cytotoxicity against human A549/ATCC cells by sulforhodamine B assay
CCRF-CEM = experiment: Cytotoxicity against human CCRF-CEM cells by sulforhodamine B assay
PC-3 = experiment: Cytotoxicity against human PC3 cells by sulforhodamine B assay
MDA-MB-231 = experiment: Cytotoxicity against human MDA-MB-231 cells by sulforhodamine B assay
K562 = experiment: Cytotoxicity against human K562 cells by sulforhodamine B assay
[1] = Cytotoxicity against human OVCAR4 cells by sulforhodamine B assay
SW-620 = experiment: Cytotoxicity against human SW620 cells by sulforhodamine B assay
LOX IMVI = experiment: Cytotoxicity against human LOXIMVI cells by sulforhodamine B assay
ACHN = experiment: Cytotoxicity against human ACHN cells by sulforhodamine B assay
[2] = read-out: LC50 (the source's name)

COc1ccc(C(=O)/C=C/c2ccc(/C=C/c3cc(OC)c(OC)c(OC)c3)cc2)cc1
GI50 (HOP-62): 1.28 µM
TGI (HOP-62): 63.8 µM
CC50 (HOP-62; [2]): > 100 µM
GI50 (A549): 4.67 µM
TGI (A549): 80.9 µM
CC50 (A549; [2]): > 100 µM
GI50 (CCRF-CEM): 4.15 µM
TGI (CCRF-CEM): > 100 µM
CC50 (CCRF-CEM; [2]): > 100 µM
GI50 (PC-3): 5.65 µM
TGI (PC-3): > 100 µM
CC50 (PC-3; [2]): > 100 µM
GI50 (MDA-MB-231): 10.2 µM
TGI (MDA-MB-231): > 100 µM
CC50 (MDA-MB-231; [2]): > 100 µM
GI50 (K562): 3.03 µM
TGI (K562): > 100 µM
CC50 (K562; [2]): > 100 µM
GI50 ([1]; OVCAR-4): 6.31 µM
TGI ([1]; OVCAR-4): 47.3 µM
CC50 ([1]; OVCAR-4, read-out: LC50 (the source's name)): > 100 µM
GI50 (SW-620): 4.5 µM
TGI (SW-620): > 100 µM
CC50 (SW-620; [2]): > 100 µM
GI50 (LOX IMVI): 3.76 µM
TGI (LOX IMVI): 60.9 µM
CC50 (LOX IMVI; [2]): > 100 µM
GI50 (ACHN): 11.6 µM
TGI (ACHN): > 100 µM
CC50 (ACHN; [2]): > 100 µM
